# Literature values, collected in US6908953B2, “Polymerizable compositions based on epoxides” (ESPE Dental AG, priority 1998, dated 2005).
# Columns and labels:
# [1] = prior-art epoxide monomers
# [2] = in vitro tests, prior-art epoxide monomers
Structure (SMILES),Cytotoxicity [1],Mutagenic properties [2]
"O=C(OCC1CCC2OC2C1)C1CCC2OC2C1 (stereo not shown) [3,4-epoxycyclohexyl-methyl 3,4-epoxycyclohexanecarboxylate]",highly cytotoxic,mutagenic properties
"O=C(CCCCC(=O)OC1CCC2OC2C1)OC1CCC2OC2C1 (stereo not shown) [bis(3,4-epoxycyclohexyl adipate)]",highly cytotoxic,mutagenic properties
